Read-outs that look alike come from different tables or passages of the source.
Columns and labels:
[1] = system: GABAA receptors (picrotoxin binding site); assay: [35S]-TBPS displacement (non-competitive displacement from the picrotoxin binding site)
Description: (§1) The IC50 values for the compounds of Scheme 1 (i.e., Compounds 1 and 2) as non-competitive displacers of [^35S]-TBPS from the picrotoxin binding site on GABAA receptors are reported in Table 1.
(§2) Results presented are from duplicate experiments performed in triplicate. Error limits are calculated as standard error of the mean. Methods used are known in the art (see, e.g., E. Stastna, et al., Neurosteroid Analogues. 16. A New Explanation for the Lack of Anesthetic Effects in Δ^16-Alphaxalone and Identification of a Δ^17(20) Analogue with Potent Anesthetic Activity, J. Med. Chem., 54(11), pp. 3926-34 (2011)).

[2] = molecular target: T1, rat α1β2γ2L type GABAA receptors expressed in Xenopus laevis oocytes (Rattus norvegicus, UniProt P62813+P63138); assay: Oocyte electrophysiology: potentiation of chloride currents mediated by 2 μM GABA, and direct gating; type: cell-based; conditions: ± SEM, N≥4; for Ratio of currents measured in the presence/absence of added compound, 0.1 μM: 0.1 μM compound; for Ratio of currents measured in the presence/absence of added compound, 0.1 μM / Ratio of currents measured in the presence/absence of added compound, 1 μM / Ratio of currents measured in the presence/absence of added compound, 10 μM: 2 μM GABA; for Ratio of currents measured in the presence/absence of added compound, 1 μM: 1 μM compound; for Ratio of currents measured in the presence/absence of added compound, 10 μM: 10 μM compound; for (gating) 10 μM: ratio of compound only current/2 μM GABA current: direct current gated by 10 μM compound in the absence of GABA
T1 construct: expressed in transfected cells; host or cells: Xenopus laevis oocytes
Description: The compounds of the present disclosure were evaluated for the ability to potentiate chloride currents mediated by 2 μM GABA at rat α1β2γ2L type GABAA receptors expressed in Xenopus laevis oocytes and the results are shown in Table 2.
The potentiation of 2 μM GABA-mediated chloride currents at rat α1β2γ2-type GABAA receptors expressed in frog oocytes by different concentrations of Compound 1, is illustrated by the curves in FIG. 2, as well. ^aThe GABA concentration used for the control response was 2 μM. Each compound was evaluated on at least four different oocytes at the concentrations indicated, and the results reported are the ratio of currents measured in the presence/absence of added compound. Gating represents direct current gated by 10 μM compound in the absence of GABA, and this current is reported as the ratio of compound only current/2 μM GABA current. Error limits are calculated as standard error of the mean (N≥4). Methods used are known in the art (see, e.g., E. Stastna, et al., Neurosteroid Analogues. 16. A New Explanation for the Lack of Anesthetic Effects in Δ^16-Alphaxalone and Identification of a Δ^17(20) Analogue with Potent Anesthetic Activity, J. Med. Chem., 54(11), pp. 3926-34 (2011)).

tadpoles = assay: Tadpole loss of righting reflex (LRR) and loss of swimming reflex (LSR); type: in vivo; conditions: ± SEM
From the text: Table 3 discloses the anesthetic effects of the compounds of the present disclosure. In particular, the anesthetic effect of the compounds of the present disclosure on Loss of Righting Reflex (LRR) and Loss of Swimming Reflex (LSR).
A quantal dose-response curve for loss of righting reflect (LRR) and loss of swimming reflex (LSR) caused by Compound 1 in tadpoles, is illustrated in FIG. 3, as well. ^aMethods used are known in the art (see, e.g., E. Stastna, et al., Neurosteroid Analogues. 16. A New Explanation for the Lack of Anesthetic Effects in Δ^16-Alphaxalone and Identification of a Δ^17(20) Analogue with Potent Anesthetic Activity, J. Med. Chem., 54(11), pp. 3926-34 (2011)). Error limits are calculated as standard error of the mean (N=10 or more animals at each of five or more different concentrations).

[3] = molecular target: T2, GABAA receptors (picrotoxin binding site); assay: [35S]-TBPS displacement (non-competitive displacement from the picrotoxin binding site); conditions: duplicate experiments performed in triplicate; ± SEM; read-out: Inhibition of [35S]-TBPS binding, IC50
T2 construct: other: duplicate experiments performed in triplicate; ± SEM; other: Hill coefficient
Description: as §1, §2

GABAA receptors = conditions: background statement; cited from earlier work
[4] = loss of righting reflex, read-out: Tadpole LRR EC50
[5] = loss of swimming reflex, read-out: Tadpole LSR EC50
[6] = [35S]-TBPS displacement, hydrogenated Δ17(20) double bond

T1 sequence (P62813 28-455): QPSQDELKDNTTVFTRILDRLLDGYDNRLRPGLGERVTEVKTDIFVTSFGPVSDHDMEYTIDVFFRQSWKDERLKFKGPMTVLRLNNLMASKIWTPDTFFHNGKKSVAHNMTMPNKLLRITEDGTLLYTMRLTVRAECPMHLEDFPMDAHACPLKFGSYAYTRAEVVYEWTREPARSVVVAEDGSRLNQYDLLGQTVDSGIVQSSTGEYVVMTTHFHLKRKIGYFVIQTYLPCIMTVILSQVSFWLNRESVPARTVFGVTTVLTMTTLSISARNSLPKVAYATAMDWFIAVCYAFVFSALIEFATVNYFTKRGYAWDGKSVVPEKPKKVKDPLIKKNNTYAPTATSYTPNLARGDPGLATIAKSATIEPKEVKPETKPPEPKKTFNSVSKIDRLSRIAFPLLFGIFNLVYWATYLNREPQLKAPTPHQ
T1 sequence (P63138 26-474): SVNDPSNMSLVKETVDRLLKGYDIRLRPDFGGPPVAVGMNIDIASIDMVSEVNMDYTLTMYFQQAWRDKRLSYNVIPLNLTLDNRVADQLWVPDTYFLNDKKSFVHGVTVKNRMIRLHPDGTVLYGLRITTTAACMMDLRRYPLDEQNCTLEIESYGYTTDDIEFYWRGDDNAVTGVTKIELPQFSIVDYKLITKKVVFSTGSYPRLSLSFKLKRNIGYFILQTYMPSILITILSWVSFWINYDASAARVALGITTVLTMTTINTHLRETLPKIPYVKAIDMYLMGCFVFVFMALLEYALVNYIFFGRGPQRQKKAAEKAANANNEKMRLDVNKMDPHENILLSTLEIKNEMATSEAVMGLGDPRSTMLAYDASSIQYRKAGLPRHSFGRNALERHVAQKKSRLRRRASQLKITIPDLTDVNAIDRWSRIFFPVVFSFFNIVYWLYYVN
T1 sequence (P18508 other isoform, or with tags, fused parts or gaps INS375LLRMFSFK, further chain): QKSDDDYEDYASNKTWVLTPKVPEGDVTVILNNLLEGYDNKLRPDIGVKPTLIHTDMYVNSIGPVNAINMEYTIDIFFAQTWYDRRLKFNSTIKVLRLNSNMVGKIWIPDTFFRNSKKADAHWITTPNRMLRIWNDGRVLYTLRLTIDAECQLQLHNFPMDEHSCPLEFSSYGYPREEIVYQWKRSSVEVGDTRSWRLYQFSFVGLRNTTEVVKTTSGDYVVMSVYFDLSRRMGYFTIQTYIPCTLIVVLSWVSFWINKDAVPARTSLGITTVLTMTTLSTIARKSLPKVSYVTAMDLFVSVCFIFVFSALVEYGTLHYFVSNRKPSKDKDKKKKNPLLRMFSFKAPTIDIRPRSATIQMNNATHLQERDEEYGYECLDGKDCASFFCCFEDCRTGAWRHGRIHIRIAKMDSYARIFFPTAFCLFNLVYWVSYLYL

Compound | Ratio of currents measured in the presence/absence of added compound, 0.1 μM [2] | Ratio of currents measured in the presence/absence of added compound, 1 μM [2] | Ratio of currents measured in the presence/absence of added compound, 10 μM [2] | (gating) 10 μM: ratio of compound only current/2 μM GABA current [2] | melting point [°C] | EC50 (tadpoles; [4]) [nM] | EC50 (tadpoles; [5]) [nM] | IC50 [3] [nM] | other results
C[C@]12CC[C@@H](O)C[C@@H]1CC[C@@H]1[C@@H]2C(=O)C[C@]2(C)/C(=C\C#N)CC[C@@H]12 [Compound 6a] |  |  |  |  |  |  |  |  | Fold more potent at displacing [35S]-TBPS than the E isomer ([1]; Z isomer versus E isomer (Compound 6a versus Compound 6b)): about 17 fold
COC[C@]12CC[C@@H](O)C[C@@H]1CC[C@@H]1[C@@H]2CC[C@]2(C)/C(=C\C#N)CC[C@@H]12 [Compound 1, [3α,5α,17(20)Z]-19-methoxypregn-17(20)-ene-21-nitrile] | 2.88 ± 0.90 | 15.27 ± 2.58 | 45.80 ± 15.79 | 0.19 ± 0.08 | 166 to 168 | 159 ± 25 | 970 ± 65 | 42 ± 4 | 
C[C@]12CC[C@@H](O)C[C@@H]1CC[C@H]1[C@@H]3CC[C@H](CC#N)[C@@]3(C)CC(=O)[C@@H]12 [Compound 5c] |  |  |  |  |  |  |  |  | Fold decrease of IC50 value relative to Compound 6b [1, 6]: about twofold; Fold increase of IC50 value relative to Compound 6a [1, 6]: about eight-fold
COC[C@]12CC[C@@H](O)C[C@@H]1CC[C@@H]1[C@@H]2CC[C@]2(C)/C(=C/C#N)CC[C@@H]12 [Compound 2, [3α,5α,17(20)E]-19-methoxypregn-17(20)-ene-21-nitrile] | 0.69 ± 0.11 | 1.26 ± 0.22 | 2.97 ± 0.33 | 0.31 ± 0.25 | 185 to 188 | 2780 ± 560 | ~10000 | 657 ± 114 | 
CC(=O)C1=CC[C@H]2[C@@H]3CC[C@H]4C[C@H](O)CC[C@]4(C)[C@H]3C(=O)C[C@]12C [Δ^16-alphaxalone] |  |  |  |  |  |  |  |  | Allosteric activity at GABAA receptors, in contrast to alphaxalone (GABAA receptors): greatly diminished allosteric activity
